{"source": "patent EP0714912B1", "about": "“GMP-140 ligand” (THE BOARD OF REGENTS OF THE UNIVERSITY OF OKLAHOMA, priority 1990, dated 1992)", "target": "T1, immobilized GMP-140 (Homo sapiens, UniProt P16109)", "T1 construct": "from tissue; host or cells: outdated human platelet packs", "T1 sequence (P16109 42-830)": "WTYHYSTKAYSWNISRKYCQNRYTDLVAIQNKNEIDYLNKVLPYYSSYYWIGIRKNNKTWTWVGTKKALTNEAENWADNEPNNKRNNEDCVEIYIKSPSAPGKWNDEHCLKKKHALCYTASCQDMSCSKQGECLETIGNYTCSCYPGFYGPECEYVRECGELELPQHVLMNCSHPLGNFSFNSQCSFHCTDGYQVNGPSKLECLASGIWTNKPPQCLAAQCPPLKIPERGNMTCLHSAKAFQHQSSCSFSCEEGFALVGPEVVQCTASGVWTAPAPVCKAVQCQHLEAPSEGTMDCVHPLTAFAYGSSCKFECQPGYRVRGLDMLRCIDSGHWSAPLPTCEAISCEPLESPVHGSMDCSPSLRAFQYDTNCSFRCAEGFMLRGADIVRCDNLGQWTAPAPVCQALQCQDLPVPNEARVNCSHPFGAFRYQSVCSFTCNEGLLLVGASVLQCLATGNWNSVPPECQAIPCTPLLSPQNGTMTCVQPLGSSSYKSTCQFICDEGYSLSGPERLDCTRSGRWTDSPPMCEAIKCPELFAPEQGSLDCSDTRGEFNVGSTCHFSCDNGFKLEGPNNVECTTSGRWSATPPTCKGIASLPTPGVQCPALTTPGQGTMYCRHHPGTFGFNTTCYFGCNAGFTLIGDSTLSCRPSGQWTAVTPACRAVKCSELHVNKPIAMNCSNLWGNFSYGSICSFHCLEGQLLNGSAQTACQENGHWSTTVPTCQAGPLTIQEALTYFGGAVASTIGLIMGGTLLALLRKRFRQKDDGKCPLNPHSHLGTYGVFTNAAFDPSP", "test": "Neutrophil adhesion to purified GMP-140 immobilized on plastic wells (myeloperoxidase read-out)", "format": "cell-based", "conditions": "concentrations up to 300 µM", "text": "Peptides were screened for their ability to inhibit neutrophil adhesion to purified GMP-140 immobilized on plastic wells, using the assay described by Geng, et al., Nature 343, 757-760 (1990).\nHuman neutrophils are isolated from heparinized whole blood by density gradient centrifugation on Mono-Poly resolving media, Flow Laboratories. Neutrophil suspensions are greater than 98% pure and greater than 95% viable by trypan blue exclusion. For adhesion assays, neutrophils are suspended at a concentration of 2 x 10^6 cells/ml in Hanks' balanced salt solution containing 1.26 mM Ca^2+ and 0.81 mM Mg^2+ (HBSS, Gibco) with 5 mg/ml human serum albumin (HBSS/HSA). Adhesion assays are conducted in triplicate in 96-well microtiter plates, Corning, incubated at 4°C overnight with 50 microliters of various protein solutions.\nGMP-140 is plated at 5 micrograms/ml and the control proteins: human serum albumin (Alb), platelet glycoprotein IIb/IIIa (IIb), von Willebrand factor (vWF), fibrinogen (FIB), thrombomodulin (TM), gelatin (GEL) or human serum (HS), are added at 50 micrograms/ml. All wells are blocked for 2 h at 22°C with 300 microliters HBSS containing 10 mg/ml HSA, then washed three times with HBSS containing 0.1% Tween-20 and once with HBSS. […] Inhibition is read as a lower percent adhesion, so that a value of 5% means that 95% of the specific adhesion was inhibited. […]", "data": [{"smiles": "CC(=O)N[C@H]1[C@H](O[C@H]2[C@@H](O)[C@@H](CO)O[C@@H](O[C@H]3[C@H](O)[C@@H](O)C(O)O[C@@H]3CO)[C@@H]2O)O[C@H](CO)[C@@H](O[C@@H]2O[C@H](CO)[C@H](O)[C@H](O)[C@H]2O)[C@@H]1O[C@@H]1O[C@@H](C)[C@@H](O)[C@@H](O)[C@@H]1O", "note": "(stereo partly shown) [LNFIII]", "values": [{"measurement": "effect on binding of neutrophils to purified, immobilized GMP-140", "result": "absolutely no effect"}]}]}
